One experiment concerns the target T1, EGFR tyrosine kinase (Homo sapiens, UniProt P00533).
T1 construct: anti-EGFR immunoprecipitates from lysates of MDA-MB-231 human breast cancer cells; endogenous in cells; host or cells: MDA-MB-231 (ATCC HTB-26)
Description: Cell-free EGFR immune complex kinase assay. The experiment is classed as biochemical. The conditions noted are these: EGFR immunoprecipitated from MDA-MB-231 lysates, 1 hour incubation, read-out: EGFR Inhibition IC50. The protocol:
For EGFR immune complex kinase assays, 24-hours after treatment with leflunomide analogs, MDA-MB-231 breast cancer cells were stimulated with 20 ng/mL EGF for 5 minutes, lysed in 1% Nonidet-P-40 buffer, and cell lysates were immunoprecipitated with an anti-EGFR antibody reactive with the sequence Ala^351-Asp^364 of the human EGFR (Upstate Biotechnology Inc. [UBI] Catalog # 05-104) (Uckun, F. M., et al. Clin. Can. Res. 1998, 4, 901). EGFR immune complexes were examined for tyrosine phosphorylation by Western blot analysis, as described by Uckun, F. M., et al. Clin. Can. Res. 1998, 4, 901. All anti-phosphotyrosine Western blots were subjected to densitometric scanning using the automated AMBIS system (Automated Microbiology System, Inc., San Diego, Calif.) and for each time point a % inhibition value was determined by comparing the density ratios of the tyrosine phosphorylated EGFR protein bands to those of the baseline sample and using the formula: % Inhibition=100−100×[Density of tyrosine phosphorylated EGFR band]test sample/[Density of tyrosine phosphorylated EGFR band]baseline control sample. The IC50 values were determined using an Inplot program (Graphpad Software, Inc., San Diego, Calif.).
In other experiments, MDA-MB-231 cells were stimulated with 10 ng/ml EGF prior to immunoprecipitation of the EGFR. EGFR immune complexes were incubated for 1 hour at room temperature with various LFM analogs and tyrosine kinase assays were performed in the presence of [γ-^32P]-ATP, as previously described (Uckun, F. M., et al. Clin. Can. Res. 1998, 4, 901; Narla, R. K., et al. Clin. Can. Res 1998, 1405; Uckun, F. M., et al. Science 1996, 22, 1096; Uckun, F. M., et al. Science 1995, 267, 886). The kinase assay gels were analyzed both by autoradiography and using the BioRad Storage Phosphor Imager System (BioRad, Hercules, Calif.) for quantitative scanning.

Another experiment addresses T2, JAK1 (Homo sapiens, UniProt P23458).
T2 construct: made in house; host or cells: Sf21 insect cells (baculovirus)
Description: Cell-free JAK1 immune complex kinase assay. The experiment is classed as biochemical. The settings on record: for effect on enzymatic activity of JAK1: at concentrations as high as 350 μM. The protocol: Immunoprecipitations, immune-complex protein kinase assays, and immunoblotting using the ECL chemiluminescence detection system (Amersham Life Sciences) were conducted as described previously (Vassilev, A., et al. J. Biol. Chem. 1998, in press; Goodman, P. A., et al. J. Biol. Chem. 1998, 273, 17742; Mahajan, S., et al. Mol. Cell. Biol. 1995, 15, 5304; Uckun, F. M., et al. Science 1996, 22, 1096).

Another experiment relates to MDA-MB-231 cells. The experiment in a line: Confocal laser scanning microscopy of treated cells. The experiment is classed as cell-based, human. The settings on record: MDA-MB-231, 100 μM, 24 hours, α-tubulin / TOTO-3 staining. The method, then: Immunofluorescence was used to examine the morphologic features of breast cancer cells treated with LFM and its analogs. Before the experiment, cells were trypsinized from rapidly growing tissue culture flasks and seeded onto sterile 22 mm^2 coverslips in 6-well culture plates. Cells on coverslips were returned to the incubator for 24 hours prior to treatment. The following day, drugs were added from a stock solution made in DMSO to a final concentration of 100 μM. Final DMSO concentration was 0.1% in both test samples and controls. Cells were returned to a 37° C. incubator for 24 hours before further processing.
At 24 hours, coverslips were fixed in −20° C. methanol for 15 minutes followed by a 15 minute incubation in phosphate buffered saline +0.1% Triton X-100(PBS-Tx). Coverslips were next incubated with a monoclonal antibody against α-tubulin (Sigma Chemical Co, St. Louis, Mo.) at a dilution of 1:1000 for 40 minutes in a humidified chamber at 37° C. Coverslips were washed for 15 minutes in PBS-Tx followed by a 40 min incubation with a goat anti-mouse IgG antibody conjugated to FITC (Amersham Corp., Arlington Heights, Ill.). The coverslips were again rinsed in PBS-Tx and incubated with 5 μM TOTO-3 (Molecular Probes, Eugene Oreg.) for 20 minutes to label the nuclear DNA. […]

pIC50: −log10 of the molar value. Entries after “also recorded” stand apart in the source; their conditions may differ. Where only a bound is given, the exact number is not on record here.

T2 sequence (P23458 whole entry, species assumed): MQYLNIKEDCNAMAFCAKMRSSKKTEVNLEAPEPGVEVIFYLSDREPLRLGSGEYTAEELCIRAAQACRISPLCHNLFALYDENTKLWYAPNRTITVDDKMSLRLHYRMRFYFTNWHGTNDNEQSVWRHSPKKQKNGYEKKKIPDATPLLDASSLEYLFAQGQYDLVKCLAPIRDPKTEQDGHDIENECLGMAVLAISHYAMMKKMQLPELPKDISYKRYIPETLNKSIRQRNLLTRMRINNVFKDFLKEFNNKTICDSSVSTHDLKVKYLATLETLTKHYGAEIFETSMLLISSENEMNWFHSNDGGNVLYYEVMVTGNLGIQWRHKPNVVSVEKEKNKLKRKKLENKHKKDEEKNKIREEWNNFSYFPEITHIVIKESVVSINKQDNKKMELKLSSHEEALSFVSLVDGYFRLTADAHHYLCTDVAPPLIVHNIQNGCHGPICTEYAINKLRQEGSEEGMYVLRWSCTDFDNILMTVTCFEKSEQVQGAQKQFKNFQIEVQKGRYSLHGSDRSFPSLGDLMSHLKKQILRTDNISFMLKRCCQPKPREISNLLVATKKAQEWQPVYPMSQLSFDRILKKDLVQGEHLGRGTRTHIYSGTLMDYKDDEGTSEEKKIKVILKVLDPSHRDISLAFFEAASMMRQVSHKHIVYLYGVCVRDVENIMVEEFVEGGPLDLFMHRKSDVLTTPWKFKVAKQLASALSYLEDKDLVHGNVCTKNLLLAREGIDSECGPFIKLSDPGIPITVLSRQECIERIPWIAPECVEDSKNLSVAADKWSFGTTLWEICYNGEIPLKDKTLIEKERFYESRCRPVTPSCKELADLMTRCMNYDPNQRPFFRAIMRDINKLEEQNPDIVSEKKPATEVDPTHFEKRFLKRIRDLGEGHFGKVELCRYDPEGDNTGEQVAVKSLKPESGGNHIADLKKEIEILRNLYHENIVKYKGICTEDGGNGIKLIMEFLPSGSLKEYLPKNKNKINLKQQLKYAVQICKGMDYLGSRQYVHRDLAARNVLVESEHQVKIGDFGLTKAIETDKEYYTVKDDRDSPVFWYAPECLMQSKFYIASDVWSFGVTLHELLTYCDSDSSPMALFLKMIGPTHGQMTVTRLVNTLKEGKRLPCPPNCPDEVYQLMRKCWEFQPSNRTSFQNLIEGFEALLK
T1 sequence (P00533 25-1210): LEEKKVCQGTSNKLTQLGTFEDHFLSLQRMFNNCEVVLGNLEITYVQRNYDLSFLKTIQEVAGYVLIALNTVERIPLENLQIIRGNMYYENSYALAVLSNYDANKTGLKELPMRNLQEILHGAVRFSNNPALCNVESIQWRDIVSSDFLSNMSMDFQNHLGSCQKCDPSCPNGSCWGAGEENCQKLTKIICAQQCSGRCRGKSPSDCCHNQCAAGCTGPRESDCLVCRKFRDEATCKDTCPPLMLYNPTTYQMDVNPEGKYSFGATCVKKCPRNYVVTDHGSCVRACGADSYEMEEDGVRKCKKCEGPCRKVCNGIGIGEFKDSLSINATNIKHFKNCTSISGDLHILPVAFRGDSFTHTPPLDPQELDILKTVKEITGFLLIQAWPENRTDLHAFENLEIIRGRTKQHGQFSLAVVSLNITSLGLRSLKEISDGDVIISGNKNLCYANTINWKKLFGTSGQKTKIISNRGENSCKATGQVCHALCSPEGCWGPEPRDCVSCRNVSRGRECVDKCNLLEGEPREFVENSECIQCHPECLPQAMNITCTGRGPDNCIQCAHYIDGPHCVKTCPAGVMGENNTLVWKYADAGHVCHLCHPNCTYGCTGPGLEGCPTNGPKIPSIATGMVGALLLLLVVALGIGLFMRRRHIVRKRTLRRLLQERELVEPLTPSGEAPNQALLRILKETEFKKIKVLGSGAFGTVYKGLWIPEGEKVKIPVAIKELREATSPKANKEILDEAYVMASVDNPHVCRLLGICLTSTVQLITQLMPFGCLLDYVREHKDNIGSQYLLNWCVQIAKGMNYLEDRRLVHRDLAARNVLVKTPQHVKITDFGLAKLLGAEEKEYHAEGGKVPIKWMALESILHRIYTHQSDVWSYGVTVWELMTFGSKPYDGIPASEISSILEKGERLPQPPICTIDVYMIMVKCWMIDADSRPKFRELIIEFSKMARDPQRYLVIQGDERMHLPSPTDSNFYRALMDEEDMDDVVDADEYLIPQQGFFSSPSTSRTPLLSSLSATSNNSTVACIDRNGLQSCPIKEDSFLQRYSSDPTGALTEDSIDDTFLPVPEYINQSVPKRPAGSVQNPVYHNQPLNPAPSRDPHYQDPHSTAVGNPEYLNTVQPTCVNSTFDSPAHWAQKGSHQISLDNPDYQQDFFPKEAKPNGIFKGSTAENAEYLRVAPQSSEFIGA

`CC(O)=C(C#N)C(=O)Nc1ccc(C(F)(F)F)cc1` [LFM, α-Cyano-β-hydroxy-β-methyl-N-[4-(trifluoromethyl)phenyl]-propenamide, reference compound]: the pIC50 at EGFR tyrosine kinase is 5.27. Moreover, the “effect on enzymatic activity of JAK1” value at JAK1 is “did not affect the enzymatic activity”.
As for `C/C(O)=C(\C#N)C(=O)Nc1ccc(OC(F)(F)F)cc1` [LFM-A12, α-Cyano-β-hydroxy-β-methyl-N-[4-(trifluoromethoxy)phenyl]-propenamide], the “morphology and microtubular organization of treated cells” value with MDA-MB-231 cells is “much smaller and had an abnormal shape with large cytoplasmic vacuoles; also recorded: marked shrinkage with disruption of microtubules”. In addition, the pIC50 on EGFR tyrosine kinase is 5.77; at JAK1 (JAK1, cell-free, read-out: Inhibition IC50), less than 3.76. At JAK1, the “effect on enzymatic activity of JAK1” value is “did not affect the enzymatic activity”.

Usually pIC50 stands for −log10 of the IC50, conventionally taken in molar units.

(Values after patent US6864286B2, “Inhibitors of the EGF-receptor tyrosine kinase and methods for their use” (Parker Hughes Institute, priority 1998, dated 2005).)
